One block for each molecule: values may come before it. Square brackets hold non-standard residues; d marks the D form. Ends that are not written are not given here. Peptide text beside a SMILES is read from it.
Key:
[1] = system: β-amyloid aggregates (Aβ aggregates); assay: β-amyloid 1-42 protein aggregates in transfected 293T cells; format: cell-based
Protocol: (§1) In addition, in this study, H4 cell line (GL-H4) and 293T cell line in which the GFP-LC3 plasmid was permanently infected were used. As a cell culture medium, 10% fetal bovine serum (Hyclone, USA) and a mixture solution of antibiotics and antifungal agents (WellGene, South Korea) were added to Minimum Essential Medium (MEM, WellGene) and incubated in a cell incubator in which the conditions of 37° C. and 5% CO2 were maintained.
(§2) In the pre-preparation process, 10-12 days after cell culture, the culture medium of the cerebral cortex nerve cells was changed to a minimum essential medium (MEM, Gibco, USA) without adding serum, and then was treated with N,N,N′,N′-tetrakis(2-pyridylmethyl)ethylene-diamine (TPEN, 2 μM, Sigma, USA), which is a zinc chelator, 50 μM chloroquine (CQ), 100 nM bafilomycin A-1 (Baf-A1), 500 μM methyl-beta-cyclodextrin (MβCD), and 2 μM chloropromazine (CP). Here, the MβCD is a caveolin-mediated endocytosis inhibitor, and CP is a clathrin-mediated endocytosis inhibitor. In addition, in the cell line experiments, the medium was changed to MEM according to the purpose of the experiments and was then treated with 40 μM chloroquine (CQ) and 100 nM bafilomycin A-1 (Baf-A1). During the pre-preparation process, the medium was treated with alloferon D-form peptides (0.2, 2, or 20 μM), free zinc (25 μM), TPEN (1 μM), and the like separately or together according to the purpose of each experiment.
Subsequently, the present inventors investigated whether alloferon may dissolve the β-amyloid aggregates (Aβ aggregates) generated after the transient transfection of β-amyloid 1-42 (Aβ1-42) into 293T cell lines. To this end, EGFP-tagged 1-42Aβ (pEGFP-C1-Abeta 1-42) DNA was transiently transfected into 293T cell lines using Lipofectamine2000. For cell observation, GFP signals were analyzed through a fluorescence microscope, and ImageJ was used for size and number analysis of GFP-positive aggregates. pEGFP-C1-Abeta 1-42 DNA was purchased from Addgene. Western blot analysis was performed in the same manner as in Example 5, except that anti-6E10-antibodies (Biolegend, USA) were used as the antibodies (FIG. 7).

[2] = system: Huntington protein aggregates (Htt aggregates); assay: Mutant Huntington protein aggregates in transfected 293T cells; format: cell-based
Protocol: as §1, §2
Subsequently, the present inventors investigated whether alloferon may dissolve Huntington protein aggregates (Htt aggregates) generated after the transient transfection of mutant Huntington protein (mt-Htt) into 293T cell lines. To this end, GFP-tagged Huntington Q74 (GFP-mHttQ74) DNA was transiently transfected into 293T cell lines using Lipofectamine2000. For cell observation, GFP signals were analyzed through a fluorescence microscope, and ImageJ was used for size and number analysis of GFP-positive aggregates (FIG. 8A). GFP-mHttQ74 DNA was provided by Dr. David C. Rubinsztein of the University of Cambridge, England (Park et al., Neurobiol. Dis. 42: 242-251, 2011). […]

[3] = system: IL-6; assay: Plasma cytokine ELISA after intraperitoneal injection; format: in vivo, mice; details: 0.5, 2, 8, and 16 mg/kg intraperitoneally, after 1 hour
Protocol: (§3) Specifically, the alloferon D-form peptides were intraperitoneally injected at 0.5, 2, 8, and 16 mg/kg, and after 1 hour, blood was collected from the retro-orbital plexus of the mice. The collected blood was centrifuged at 2,000 g at 4° C. for 20 minutes using a centrifuge, and then only the supernatant was taken to obtain plasma. Thereafter, an experiment was performed using TNF-α and IL-6 Elisa kit (RayBiotech, USA). Specifically, 100 μL of plasma sample was put into a 96-well microplate coated with each of anti-TNF-α and anti-IL-6 antibodies, and then left while shaking at room temperature for 2 hours and 30 minutes. Thereafter, the sample was discarded, washed 4 times with a wash buffer provided from the kit, and then 100 μL of the biotin-binding secondary antibodies was reacted for 1 hour. Then, it was washed 4 times with a washing buffer, 100 μL of streptavidin solution was added thereto, left while shaking at room temperature for 45 minutes, and washed again 4 times with a washing buffer. After 100 μL of TMB One-step substrate was added thereto and left for 30 minutes, 50 μL of a reaction termination solution was added thereto, and then 450 nm absorbance was measured by a spectrophotometer.

[4] = Body weight change during intraperitoneal administration; format: in vivo, mice; details: 16 mg/kg intraperitoneal, 14 weeks (FIG. 10C)
[5] = system: TNF-α; details: 0.5, 2, 8, and 16 mg/kg intraperitoneally, after 1 hour
Protocol: as §3

[6] = In vitro plasma stability analysis (LC / mass spectrometry)
Protocol: In vitro plasma stability analysis was performed in order to compare the stability of L-form peptides and D-form peptides of the alloferon in the plasma of mice. […] The 10 μM alloferon L-form and D-form peptides were put into 100 μL of plasma, respectively, and then allowed to stand at 37° C. for 0, 5, 10, 30, 60, and 90 minutes. Thereafter, 500 μL of cold methanol was added thereto to precipitate proteins, and the proteins were lyophilized, followed by liquid chromatography and protein mass spectrometry.

[7] = system: TFEB, cathepsin B, and cathepsin D; assay: Western blot of TFEB, cathepsin B and cathepsin D expression; format: cell-based, ICR mouse; details: 1 μM TPEN with 20 μM alloferon D-form peptide, 4 hours (FIG. 5B)
Protocol: The cerebral cortex nerve cells of the mice were obtained by extracting the cerebrum from ICR mouse embryos of 13-14 day gestation. 6-7 hemispheres per culture dish were inoculated on 24-well culture dishes or 6-well culture dishes (SPL Life Science, South Korea) coated with 0.01% poly-D-lysine (Sigma, USA) prepared in advance. A cell culture medium, in which Dulbecco's Modified Eagle's Medium (DMEM, Gibco, USA) to which 20 mM glucose and 38 mM sodium bicarbonate were added and which was further supplemented with 5% fetal bovine serum (Hyclone, USA), 5% horse serum (Gibco, USA), and 1% glutamine, was used, and the cell culture medium was incubated in a cell incubator, in which the conditions of 37° C. and 5% CO2 were maintained, and was used in this experiment 10 to 12 days in vitro (DIV) after inoculation.
The present inventors had observed that the effect of enhancing the autophagic flux by the alloferon D-form peptides is achieved through the activity of cathepsin B and the decrease in the lysosomal pH, and thus, this time, the present inventors investigated through western blot analysis in order to find out whether there is a change in the amount of lysosomal protease expression. […]

[8] = system: cerebral cortical nerve cells; assay: Zinpyr-1 staining (zinc in the lysosome); format: cell-based, ICR mouse; details: in combination with 1 μM TPEN, 4 hours
Protocol: Subsequently, the present inventors measured the zinc concentration in the cells to determine what effect the treatment with the alloferon D-form peptides has on the zinc concentration in the lysosome. To this end, specifically, the cerebral cortical nerve cells were washed once with MEM, and then the MEM was replaced with MEM containing 5 μM zinpyr-1, an intracellular zinc marker (Cayman Chemical, USA, Ex=492 nm, Em=527 nm) and 75 nM lysotracker, and left at 37° C. for 30 minutes. Thereafter, it was washed with fresh MEM and treated with individual reagents (alloferon D-form peptides) according to the experimental conditions. Then, the cells were fixed with 4% PFA (pH 7.4) for 15 minutes, washed twice with PBS (Biowest, France), and photographed with a fluorescent microscope.

[9] = system: cortical nerve cells; assay: Lysotracker staining (lysosomal pH); format: cell-based, ICR mouse
From the text: The cerebral cortex nerve cells of the mice were obtained by extracting the cerebrum from ICR mouse embryos of 13-14 day gestation. 6-7 hemispheres per culture dish were inoculated on 24-well culture dishes or 6-well culture dishes (SPL Life Science, South Korea) coated with 0.01% poly-D-lysine (Sigma, USA) prepared in advance. […]
Since it was confirmed through FIG. 2 that alloferon may promote the autophagic flux, whether the alloferon D-form peptides are involved in pH change in the lysosome was confirmed through lysotracker staining. […] It means that the stronger the fluorescence intensity, the lower the pH, and the weaker the fluorescence intensity, the higher the pH. It was confirmed that the pH in the lysosome was lowered by only the treatment with the alloferon D-form peptides compared to the control (FIG. 3A), and when treatment with 50 μM CQ was performed, the fluorescence intensity decreased compared to the control, and this was recovered by the treatment with the alloferon D-form peptides and zinc (FIG. 3B). […]

[10] = system: H4 cell line (GL-H4); assay: LC3-GFP puncta, autophagic flux blocked by chloroquine (fluorescence microscopy); format: cell-based; details: 50 μM CQ alone
Protocol: In addition, in this study, H4 cell line (GL-H4) and 293T cell line in which the GFP-LC3 plasmid was permanently infected were used. As a cell culture medium, 10% fetal bovine serum (Hyclone, USA) and a mixture solution of antibiotics and antifungal agents ([…], South Korea) were added to Minimum Essential Medium ([…]) and incubated in a cell incubator in which the conditions of 37° C. and 5% CO2 were maintained. […] Here, the MβCD is a caveolin-mediated endocytosis inhibitor, and CP is a clathrin-mediated endocytosis inhibitor. In addition, in the cell line experiments, the medium was changed to MEM according to the purpose of the experiments and was then treated with 40 μM chloroquine (CQ) and 100 nM bafilomycin A-1 (Baf-A1). During the pre-preparation process, the medium was treated with alloferon D-form peptides (0.2, 2, or 20 μM), free zinc (25 μM), TPEN (1 μM), and the like separately or together according to the purpose of each experiment. […] Protein quantification was performed using BCA protein assay kit (Pierce Biotechnology, USA). Then, 5× sample buffer (300 mM Tris, pH 6.8, 10% SDS, 50% glycerol, 0.1% BPB, 2.5% mercaptoethanol, and 100 mM DTT) was mixed with a quantified sample and denatured at 95° C. for 5 minutes to prepare the sample. […]

[11] = system: cortical nerve cells; assay: Mechanism of action: receptor-mediated endocytosis, p62/LC3 western blot with Baf-A1; format: cell-based, ICR mouse; details: inhibitor administered alone (500 μM MβCD or 2 μM CP) with Baf-A1 + 20 μM peptide (FIG. 9B)
Protocol: as §2
Since the protein cannot pass through the cell membrane, the present inventors thought that the alloferon D-form peptides would be introduced through an endocytosis process. Thus, the present inventors investigated whether the alloferon D-form peptides act through a receptor-mediated endocytosis process. […]

[12] = 100 nM bafilomycin A1 alone, 12 hours
[13] = treatment alone, without Baf-A1

Molecule: CO/C1=C\C(C)=C\[C@@H](C)[C@@H](O)[C@@H](C)C/C(C)=C/C=C/[C@H](OC)[C@@H]([C@@H](C)[C@@H](O)[C@H](C)[C@@]2(O)C[C@@H](O)[C@H](C)[C@@H](C(C)C)O2)OC1=O [Baf-A1, bafilomycin A-1]
β-amyloid protein aggregates [1, 12]: increased
Huntington protein aggregates [2, 12]: increased

Molecule: CC(C)[C@@H](NC(=O)CNC(=O)[C@H](N)Cc1c[nH]cn1)C(=O)N[C@H](CO)C(=O)NCC(=O)N[C@H](Cc1c[nH]cn1)C(=O)NCC(=O)N[C@H](CCC(N)=O)C(=O)N[C@H](Cc1c[nH]cn1)C(=O)NCC(=O)N[C@@H](C(=O)N[C@H](Cc1c[nH]cn1)C(=O)NCC(=O)O)C(C)C [alloferon D-form peptides] (H-[dH]G[dV][dS]G[dH]G[dQ][dH]G[dV][dH]G-OH; N-terminus and C-terminus assumed)
changes in IL-6 in plasma compared to the control [3]: not observed
amount of changes in the body weights of mice [4]: did not change
changes in TNF-α in plasma compared to the control [5]: not observed

degradation / stability in plasma ([6]; mouse plasma, 10 μM, 37° C., 0-90 minutes): degraded from an early time in plasma
half-life ([6]; mouse, plasma): 51.8 min
Molecule: HGVSGHGQHGVHG [alloferon L-form peptides]

Molecule: c1ccc(CN(CCN(Cc2ccccn2)Cc2ccccn2)Cc2ccccn2)nc1 [TPEN, N,N,N′,N′-tetrakis(2-pyridylmethyl)ethylene-diamine]
amounts of TFEB, cathepsin B, and cathepsin D [7]: reduced
Zinpyr-1 fluorescence increased by the alloferon D-form peptides [8]: reduced

Molecule: [Zn] [zinc]
lysotracker fluorescence intensity decreased by 50 μM CQ ([9]; 20 μM peptide or 25 μM zinc + 50 μM chloroquine, 4 hours (FIG. 3B)): recovered
β-amyloid protein aggregates increased by Baf-A1 (fluorescence) ([1]; 100 nM bafilomycin A1 + 2 or 20 μM peptide or 25 μM zinc, 12 hours (FIG. 7A)): decreased
β-amyloid aggregates increased by Baf-A1 (western blot) ([1]; 100 nM bafilomycin A1 + peptide or 25 μM zinc, 12 hours (FIG. 7B)): decreased
β-amyloid protein aggregates compared to the control group [1, 13]: no change
Huntington protein aggregates increased by Baf-A1 ([2]; 100 nM bafilomycin A1 + 20 μM peptide or 25 μM zinc, 12 hours (FIG. 8)): decreased
Huntington protein aggregates compared to the control [2, 13]: no change

Molecule: CCN(CC)CCCC(C)Nc1ccnc2cc(Cl)ccc12 (stereo not shown) [CQ, chloroquine]
number and size of LC3 puncta [10]: significantly increased
lysotracker fluorescence intensity compared to the control ([9]; 50 μM CQ alone, 4 hours): decreased

Molecule: CN(C)CCCN1c2ccccc2Sc2ccc(Cl)cc21 [CP, chloropromazine]
effect of the alloferon D-form peptides on autophagic flux [11]: not changed

Molecule: methyl-beta-cyclodextrin [MβCD]
effect of the alloferon D-form peptides on autophagic flux [11]: not changed
